Literature values as cited in patent publication US12383619B2, “Use of glutamate modulating agents with immunotherapies to treat cancer” (Biohaven Therapeutics Ltd., priority 2016, dated 2025).
Read-outs that look alike come from different tables or passages of the source.

Legend:
advanced melanoma = details: cited from earlier work; for Response duration: Median in months: patients with confirmed complete or partial response; for OS: Hazard ratio / PFS: Hazard ratio: pembrolizumab compared to ipilimumab
advanced NSCLC = details: cited from earlier work; for OS: Hazard ratio / PFS: Hazard ratio: pembrolizumab compared to docetaxel
[1] = TPS 1% (entire population), 2 mg/kg every 3 weeks
[2] = TPS 1% (entire population), 10 mg/kg every 3 weeks
[3] = TPS≥50% (section head prints 'TPS'), 2 mg/kg every 3 weeks
[4] = TPS≥50% (section head prints 'TPS'), 10 mg/kg every 3 weeks
[5] = TPS 1% (entire population), 75 mg/m^2 every 3 weeks
[6] = TPS≥50% (section head prints 'TPS'), 75 mg/m^2 every 3 weeks

## Pembrolizumab: humanized monoclonal IgG4 antibody directed against human cell surface receptor PD-1
Advanced melanoma; 10 mg/kg every 2 weeks
  Best overall response: ORR %: 34%
  Complete response %: 5%
  OS: % of patients with event: (30%)
  OS: Median in months: Not reached
  OS: Number of patients with event: 85
  PFS: % of patients with event: (56%)
  PFS: Median in months: 5.5 months
  PFS: Number of patients with event: 157
  Partial response %: 29%
  Response duration: % ongoing: 89%
  Response duration: Median in months: 8.3 months
  OS: Hazard ratio: 0.63
  PFS: Hazard ratio: 0.58
Advanced melanoma; 10 mg/kg every 3 weeks
  Best overall response: ORR %: 33%
  Complete response %: 6%
  OS: % of patients with event: (33%)
  OS: Median in months: Not reached
  OS: Number of patients with event: 92
  PFS: % of patients with event: (57%)
  PFS: Median in months: 4.1 months
  PFS: Number of patients with event: 157
  Partial response %: 27%
  Response duration: % ongoing: 97%
  Response duration: Median in months: Not reached
  OS: Hazard ratio: 0.69
  PFS: Hazard ratio: 0.58
Advanced NSCLC; TPS 1% (entire population), 2 mg/kg every 3 weeks, BICR, RECIST 1.1
  PFS: Number of patients with event: 266
Advanced NSCLC; [1]
  OS: % of patients with event: (50%)
  OS: Number of patients with event: 172
  Overall response rate: ORR %: 18%
  PFS: % of patients with event: (77%)
  PFS: Median in months: 3.9 months
  Response duration: % ongoing: 73%
  Response duration: Median in months: Not reached
  OS: Hazard ratio: 0.71
  PFS: Hazard ratio: 0.88
Advanced NSCLC; TPS 1% (entire population), 10 mg/kg every 3 weeks, BICR, RECIST 1.1
  PFS: Number of patients with event: 255
Advanced NSCLC; [2]
  OS: % of patients with event: (45%)
  OS: Number of patients with event: 156
  Overall response rate: ORR %: 18%
  PFS: % of patients with event: (74%)
  PFS: Median in months: 4.0 months
  Response duration: % ongoing: 72%
  Response duration: Median in months: Not reached
  OS: Hazard ratio: 0.61
  PFS: Hazard ratio: 0.79
Advanced NSCLC; TPS≥50% (section head prints 'TPS'), 2 mg/kg every 3 weeks, all partial responses
  Overall response rate: ORR %: 30%
Advanced NSCLC; [3]
  OS: % of patients with event: (42%)
  OS: Median in months: 14.9 months
  OS: Number of patients with event: 58
  PFS: % of patients with event: (64%)
  PFS: Median in months: 5.2 months
  PFS: Number of patients with event: 89
  Response duration: % ongoing: 76%
  Response duration: Median in months: Not reached
  OS: Hazard ratio: 0.54
  PFS: Hazard ratio: 0.58
Advanced NSCLC; TPS≥50% (section head prints 'TPS'), 10 mg/kg every 3 weeks, all partial responses
  Overall response rate: ORR %: 29%
Advanced NSCLC; [4]
  OS: % of patients with event: (40%)
  OS: Median in months: 17.3 months
  OS: Number of patients with event: 60
  PFS: % of patients with event: (64%)
  PFS: Median in months: 5.2 months
  PFS: Number of patients with event: 97
  Response duration: % ongoing: 75%
  Response duration: Median in months: Not reached
  OS: Hazard ratio: 0.50
  PFS: Hazard ratio: 0.59

## CC(=O)O[C@@]12CO[C@@H]1C[C@H](O)[C@@]1(C)C(=O)[C@H](O)C3=C(C)[C@@H](OC(=O)[C@H](O)[C@@H](NC(=O)OC(C)(C)C)c4ccccc4)C[C@@](O)([C@@H](OC(=O)c4ccccc4)[C@H]21)C3(C)C [Docetaxel, docetaxel]
Advanced NSCLC; TPS 1% (entire population), 75 mg/m^2 every 3 weeks, BICR, RECIST 1.1
  PFS: Number of patients with event: 257
Advanced NSCLC; [5]
  OS: % of patients with event: (56%)
  OS: Number of patients with event: 193
  Overall response rate: ORR %: 9%
  PFS: % of patients with event: (75%)
  PFS: Median in months: 4.0 months
  Response duration: % ongoing: 34%
  Response duration: Median in months: 6.2 months
Advanced NSCLC; TPS≥50% (section head prints 'TPS'), 75 mg/m^2 every 3 weeks, all partial responses
  Overall response rate: ORR %: 8%
Advanced NSCLC; [6]
  OS: % of patients with event: (57%)
  OS: Median in months: 8.2 months
  OS: Number of patients with event: 86
  PFS: % of patients with event: (78%)
  PFS: Median in months: 4.1 months
  PFS: Number of patients with event: 118
  Response duration: % ongoing: 33%
  Response duration: Median in months: 8.1 months
